“Also recorded” adds a separate entry of the source.
Tests used:
in vitro = conditions: human, pH 7.4, Papp
Excerpt: (§1) An in vitro model of MatTek EpiAir® tissue was used for the permeability assessment of the test articles and control compounds. The EpiAir® culture consists of cells that have been cultured to form a pseudo-stratified, highly differentiated model closely resembling the epithelial tissue of the human respiratory tract. The histological cross-sections of the cultured tissue reveal a pseudo-stratified mucociliary phenotype.
(§2) EpiAir® tissues plated in 12 well plates were pre-equilibrated for the assay by culturing them for 24 hours at 37° C. with 5% CO2 in a humidified incubator. On the day of the assay, the cultures were washed two times with Dulbeccos' Phosphate Buffered Saline (DPBS buffer) at pH 7.4, and then dosed with donor and receiver buffer applied to the apical and basolateral surfaces of the culture, respectively. The receiver buffer consisted of DPBS, at pH 7.4. The donor solution consisted of DPBS buffer containing the appropriate compounds as specified in Table 1. All treatments were performed in triplicate. The receiver buffer was sampled at 15, 30, 60, and 120 minutes, and the donor buffer was sampled at 120 minutes.
(§3) The Lucifer Yellow concentration in the receiver samples was measured using a FluoStar fluorescence plate reader (BMG Laboratories, Durham, N.C.).
(§4) The apparent permeability coefficient, Papp, was calculated as follows: […]
(§5) where: dCr/dt is the slope of the cumulative concentration in the receiver compartment versus time; Vr is the volume of the receiver compartment; A is the surface area of epithelium available for permeation; and Co is the dosing solution concentration.

[1] = system: cultured human respiratory epithelium; experiment: Permeation across cultured human respiratory epithelium (EpiAir tissue), apical-to-basolateral Papp; conditions: p<0.05, two-tailed t-test, N=3
Excerpt: as §1, §2, §3, §4, §5

SMILES | Papp at 120 min (in vitro) [×10⁻⁶ cm/s] | Permeation (Papp) in the presence of the MAO inhibitor Pargyline compared to alone [1] | Papp at 120 min (in vitro; Treatment 1: Compound B assayed with controls, Average ± STD) [×10⁻⁶ cm/s] | Papp at 120 min (in vitro; Treatment 1: Compound B assayed with controls, Rep 1) [×10⁻⁶ cm/s] | Papp at 120 min (in vitro; Treatment 1: Compound B assayed with controls, Rep 2) [×10⁻⁶ cm/s] | Papp at 120 min (in vitro; Treatment 1: Compound B assayed with controls, Rep 3) [×10⁻⁶ cm/s] | Papp at 120 min (in vitro; Treatment 2: Compound B assayed with controls + MAO inhibitor Pargyline, Average ± STD) [×10⁻⁶ cm/s] | Papp at 120 min (in vitro; Treatment 2: Compound B assayed with controls + MAO inhibitor Pargyline, Rep 1) [×10⁻⁶ cm/s] | Papp at 120 min (in vitro; Treatment 2: Compound B assayed with controls + MAO inhibitor Pargyline, Rep 2) [×10⁻⁶ cm/s] | Papp at 120 min (in vitro; Treatment 2: Compound B assayed with controls + MAO inhibitor Pargyline, Rep 3) [×10⁻⁶ cm/s]
CN[C@@H](C)C/C=C/c1cncc(OC)c1 [Compound A, (2S)-(4E)-N-methyl-5-(3-(5-methoxypyridin)yl)-4-penten-2-amine] | 25.1 | – | – | – | – | – | – | – | – | –
CNCC/C=C/c1cccnc1 [Compound B, N-methyl-(4-pyridin-3-yl-but-3-enyl)-amine] | – | significantly lower Papp value in the absence, than in the presence; also recorded: significant increased | 18.3 ± 0.28 | 18.5 | 18 | 18.4 | 25.4 ± 0.41 | 25.1 | 25.9 | 25.2

Source: US20100028447A1, “Intranasal, Buccal, And Sublingual Administration Of Metanicotine Analogs” (TARGACEPT, INC., priority 2007, published 2010)
